Assay results taken from PubChem BioAssay (NCI).
Where “and” joins values, the source holds several entries; their conditions need not be identical. Equal values may be shown once.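 How tested: cells in 96-well plates exposed to compound for 48 hours at five concentrations. The concentration for 50% growth inhibition is given as GI50. TGI is the concentration that stops growth completely.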

Columns and labels:
Assay in all cases: inhibition of tumour cell growth, NCI panel, 48 h
SF-295 CNS = system: SF-295 CNS
NCI-H522 lung = system: NCI-H522 lung
TK-10 renal = system: TK-10 renal
786-0 renal = system: 786-0 renal
ACHN renal = system: ACHN renal
SF-539 CNS = system: SF-539 CNS
SK-MEL-2 melanoma = system: SK-MEL-2 melanoma
PC-3 prostate = system: PC-3 prostate
NCI/ADR-RES ovarian = system: NCI/ADR-RES ovarian
SN12C renal = system: SN12C renal

SMILES | GI50 (SF-295 CNS) [µM] | TGI (SF-295 CNS) | GI50 (NCI-H522 lung) | TGI (NCI-H522 lung) | GI50 (TK-10 renal) | TGI (TK-10 renal) [µM] | GI50 (786-0 renal) | TGI (786-0 renal) | GI50 (ACHN renal) [µM] | TGI (ACHN renal) | GI50 (SF-539 CNS) | TGI (SF-539 CNS) | GI50 (SK-MEL-2 melanoma) [µM] | TGI (SK-MEL-2 melanoma) | GI50 (PC-3 prostate) [µM] | TGI (PC-3 prostate) [µM] | GI50 (NCI/ADR-RES ovarian) [µM] | TGI (NCI/ADR-RES ovarian) [µM] | GI50 (SN12C renal) [µM] | TGI (SN12C renal) [µM]
CN(C)c1ccc(/C=N/NC(N)=S)nc1 | 2.91 | 16.1 µM | 1.2 µM | > 100 µM | 7.61 µM | > 100 | 3.33 µM | 9.68 µM | 2.55 | > 100 µM | 1.81 µM | > 100 µM | > 100 | > 100 µM | 3.76 | > 100 | 4.08 | > 100 | 3.51 | > 100
Cc1c(Cn2c(C)nc3c(C(=O)O)cc(N4CCOCC4)cc32)cccc1C(F)(F)F | 11 | > 84.4 µM | 89 µM | > 100 µM | 34 µM | > 100 | 24.7 µM | > 100 µM | 8.73 | > 100 µM | 72.6 µM | > 100 µM | 96.9 | > 100 µM | 6.38 | > 100 | 4.99 | 40.6 | 41.5 | > 100
CSC(=NC(=O)c1ccccc1Cl)SCCSC(=NC(=O)c1ccccc1Cl)SC |  | > 100 µM |  | > 100 µM |  | > 100 |  | > 100 µM |  | > 100 µM |  | > 100 µM |  | > 100 µM |  |  |  |  |  | > 100
CC(Oc1ccc2c(-c3ccc(Cl)cc3)cc(=O)oc2c1)C(=O)O (stereo not given) |  | > 100 µM |  | > 100 µM |  | > 100 |  | > 100 µM |  | > 100 µM |  | > 100 µM |  |  |  |  |  |  |  | > 100
O=C(c1c(F)c(F)c(F)c(F)c1F)c1c(F)c(F)c(F)c(F)c1F |  | 6.44 µM |  | 0.392 µM |  | 2.47 |  | 1.64 µM |  | 3.09 µM |  | 2.69 µM |  | 7.02 µM |  | 3.39 |  | 14.5 |  | 
COc1ccc(C(=O)C2CCC(C(=O)O)C2)cc1 (stereo not given) |  | > 100 µM |  | > 100 µM |  | > 100 |  | > 100 µM |  | > 100 µM |  | > 100 µM |  | > 100 µM |  |  |  |  |  | > 100
COc1ccc2c(c1)c(-c1nc(-c3cn(C)c4ccncc34)cs1)cn2C | 1.66 | 3.16 µM | 1.77 µM | 3.26 µM | 1.49 µM | 3.06 | 1.6 µM | 3.15 µM | 1.73 | 3.11 µM | 1.77 µM | 3.25 µM | 1.76 | 3.28 µM | 1.89 | 4.79 |  |  | 1.85 | 3.49
COc1ccc(C(=O)/C=C/c2ccc(OCCCCCCCCCCOc3ccc(/C=C/C(=O)c4ccc(OC)cc4)cc3)cc2)cc1 |  | > 100 µM |  |  |  | > 100 |  | > 100 µM |  | > 100 µM |  | > 100 µM |  | > 100 µM |  | > 100 |  | > 100 |  | > 100
CCC[CH2][Sn](=[O])[CH2]CCC | > 50 | > 50 µM | > 50 µM | > 50 µM | > 50 µM | > 50 | > 50 µM | > 50 µM | > 50 | > 50 µM | > 50 µM | > 50 µM | > 50 | > 50 µM |  |  |  |  | > 50 | > 50
COc1ccc(CC(=O)NCCc2ccc(OC)c(OC)c2OC)cc1 |  | > 100 µM |  | > 100 µM |  | > 100 |  | > 100 µM |  | > 100 µM |  | 36.7 µM |  | > 100 µM |  |  |  |  |  | > 100
CC(C)(C)C1=CC(=N/N=c2\scc(-c3ccccc3)n2-c2ccccc2)C=C(C(C)(C)C)C1=O |  | > 100 µM |  | > 100 µM |  | > 100 |  | > 100 µM |  | > 100 µM |  | > 100 µM |  | > 100 µM |  |  |  |  |  | > 100
c1ccc(SC(Sc2ccccc2)=C2CCC2)cc1 |  | > 100 µM |  | > 100 µM |  | > 100 |  | > 100 µM |  | > 100 µM |  | > 100 µM |  | > 100 µM |  |  |  |  |  | > 100
O=C1c2ccccc2-c2c3c(cc4ccnc1c24)OCO3 |  | 33.6 µM and 48.4 µM | 0.885 µM and 4.26 µM | 13.3 µM and 15.5 µM | 3.02 µM and 10.2 µM |  |  | 27.2 µM and > 100 µM |  | 24 µM and 29.3 µM | 7.97 µM and 3.53 µM | 53.5 µM and 37.8 µM |  | 19.3 µM and 28.5 µM |  |  |  |  |  | > 100
NC(=S)N1N=C2CCCCCC[C@@H]2[C@H]1c1ccccc1 |  | > 100 µM |  | 82.9 µM |  | > 100 |  | > 100 µM |  | > 100 µM |  | > 100 µM |  | > 100 µM |  |  |  |  |  | > 100
C=C(C)[C@@H]1CC[C@]2(CO)CC[C@]3(C)[C@H](CC[C@@H]4[C@@]5(C)CCCNC(C)(C)[C@@H]5CC[C@]43C)[C@@H]12 | 1.66 | 3.13 µM |  |  | 1.76 µM | 3.5 | 1.62 µM | 3.16 µM | 1.7 | 3.09 µM | 1.58 µM | 3.01 µM |  |  | 1.51 | 2.94 | 1.63 | 3.18 | 1.62 | 3.03
COc1ccc(N2C(=O)C3CC(c4ccc(Br)cc4)c4c([nH]c5ccccc45)C3C2=O)cc1 (stereo not given) |  | 24.3 µM |  |  |  | 20 |  | 4.45 µM |  | 15.4 µM |  | 11.7 µM |  | > 100 µM |  |  |  |  |  | 15.2
CC1=C(C#N)C23C(=O)N(c4ccccc4)C(=O)C2=C(O)C=CC3(O)N1Cc1ccc(Cl)cc1Cl (stereo not given) | 1.32 | 5.64 µM |  |  | 2.79 µM | 11.9 | 3.99 µM | 14.5 µM | 12.6 | 25.2 µM | 2.11 µM | 4.9 µM | 2.98 | 11.5 µM | 4.68 | 17.1 | 16.2 | 39.5 | 2.4 | 6.83
Nc1ncc(-c2ccc3ncnc(Nc4cccc(Cl)c4)c3c2)cn1 | 0.216 |  | 0.128 µM | 4.95 µM |  |  | 0.339 µM and 1.78 µM | > 100 µM | 0.0232 |  | 0.279 µM and 2.14 µM | > 100 µM |  |  | 1.48 | > 100 |  |  | 1.82 | > 100
